Laboratory results from US20040229933A1, “Treatment of hypertension” (Pfizer Inc, priority 2003, published 2004).
Ends that are not written are not given here.

Assays:
GPR54 = GPR54 (Homo sapiens, UniProt Q969F8); details: cited from earlier work
rat aortic rings = test: Isolated rat aorta assay (organ bath, aortic rings); details: organ bath system
Method: Segments of endothelium intact rat aorta were trim cleaned of fat and surrounding connective tissues and aortic rings strung up in 5 ml organ baths and perfused with oxygenated modified Kreb's solution (118 mM NaCl, 4.7 mM KCl, 25 mM NaHCO3, 11.1 mM glucose, 1.18 mM KH2PO4, 1.18 mM MgSO4 and 2mM CaCl2). Following an equilibration period of approximately 60 min, tissues were challenged with 1 μM phenylephrine (PE). Following a stable response tissues were washed and the above dose of PE was repeated. Once the tissues reached a maximum response 1 μM acetylcholine was administered to determine the percentage of endothelium dependent relaxation. Tissues were washed and cumulative concentration response curves were constructed to Kiss-1 and urotensin-II for a comparison. […] The potential for Kiss-1 mediated vasorelaxation was assessed in aortic rings pre-constricted with 300 nM noradrenaline along with appropriate control tissues with no drug. Drug potency (EC50) and efficacy (Emax) was determined.
Rat aortic rings are set up as described before for measuring Kiss-1 potency and efficacy in a 5 ml organ bath set-up. The potency of antagonist can be determined by constructing a dose response curve to Kiss-1 in the presence of a single concentration of Kiss-1 antagonist or vehicle. […]

[1] = tested on: CHO cells transfected with GPR54; details: cited from earlier work

GPR54, sequence (Q969F8 whole entry, species assumed): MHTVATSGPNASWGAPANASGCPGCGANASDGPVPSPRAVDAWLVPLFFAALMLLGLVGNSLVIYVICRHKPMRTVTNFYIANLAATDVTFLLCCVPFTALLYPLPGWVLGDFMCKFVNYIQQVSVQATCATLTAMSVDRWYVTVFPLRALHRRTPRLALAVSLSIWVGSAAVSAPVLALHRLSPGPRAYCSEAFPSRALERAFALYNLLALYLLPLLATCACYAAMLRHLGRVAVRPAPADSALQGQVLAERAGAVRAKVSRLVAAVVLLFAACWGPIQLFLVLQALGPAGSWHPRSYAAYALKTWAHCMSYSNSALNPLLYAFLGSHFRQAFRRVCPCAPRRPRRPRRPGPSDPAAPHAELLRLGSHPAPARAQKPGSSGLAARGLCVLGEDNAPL

## Kiss-1 (40-54): C-terminal fragment of Kiss-1 (KDLPNYNWNSFGLRF-NH2; UniProt Q15726 107-121, looked up, fragment)
GPR54
  agonist activity at GPR54: potent agonists

## Kiss-1 (45-54): C-terminal fragment of Kiss-1, derived from the 54 amino acid Kiss peptide sequence; Kiss-1 receptor agonist (YNWNSFGLRF-NH2; UniProt Q15726 112-121, looked up, fragment)
Rat aortic rings
  vasoconstriction: vasoconstriction

## Kiss-1: carboxy-terminally amidated peptide with 54 amino acid residues, also called metastin, isolated from human placenta (GTSLSPPPESSGSPQQPGLSAPHSRQIPAPQGAVLVQREKDLPNYNWNSFGLRF-NH2; UniProt Q15726 68-121, looked up)
Rat aortic rings
  vasoconstriction: potent vasoconstrictor
GPR54
  agonist activity at GPR54: potent agonists
[1]
  migration, chemotaxis and invasion: inhibits migration, chemotaxis and invasion
